Converted amounts (≈) assume the structure as drawn. Read-outs that look alike come from different tables or passages of the source.
Key:
S. cerevisiae = test: in vitro; details: Saccharomyces cerevisiae
human fibroblast = test: in vitro
[1] = system: Cryptosporidium parvum (CP); test: Cell culture model of Cryptosporidium parvum infection in HCT-8 cells, real-time qRT-PCR; format: cell-based; details: Cryptosporidium parvum; for MIC50: 44 h
Experimental: Fresh oocysts of CP (Iowa strain) were purchased from Bunch Grass Farm (Deary, Id.). Oocysts were further purified by a Percoll-based gradient centrifugation method and surface sterilized with 10% bleach for 7 min on ice, followed by washes with phosphate-buffered saline (PBS). An ileocecal colorectal adenocarcinoma cell line (HCT-8, ATCC #CCL-244) was used to host the growth of CP in vitro. One day before the inoculation, HCT-8 cells were seeded in 96-well plates (2.5×10^4/well) containing RPMI 1640 medium supplied with 10% fetal bovine serum (200 μL medium/well in all experiments) and allowed to grow overnight at 37° C. under 5% CO2 atmosphere until they reached ˜90% confluence. For drug testing, host cells were infected with 1.5×10^4 oocysts per well (ratio ˜1:3). After inoculation, parasite oocysts were allowed to undergo excystation and invasion into host cells for 3 h at 37° C. Free parasites and oocyst walls in the medium were removed from the plates by an exchange of the culture medium. Drugs at specified concentrations were added into the culture at this time point (immediately after the medium exchange). Parasite-infected cells were then incubated at 37° C. for additional 41 h (total 44 h infection time). At least two independent experiments were conducted for every experimental condition, each including two replicates drugs and eight replicates for negative controls.
Plates containing HCT-8 cells infected with CP for 44 h were first centrifuged for 10 min at 1000×g to ensure that free merozoites in the medium were firmly settled on the bottom of the wells. Medium was removed, followed by two gentle washes with PBS. For extracting total RNA, 200 μL of ice-cold Bio-Rad iScript qRT-PCR sample preparation reagent (lysis buffer) (Bio-Rad Laboratories, Hercules, Calif.) was added into each well. Plates were sealed with heat sealing films and subjected to vortex for 20 min. Plates were then incubated at 75° C. for 15 min, followed by centrifugation (5 min, 2000×g) to settle down cell debris. Supernatants were used immediately in subsequent qRT-PCR reactions or the plates were stored at −80° C. until use.
The levels of 18S rRNA transcripts from CP and host cells (referred to as Cp18S and Hs18S) were detected by real-time qRT-PCR method using qScrip™ one-step SYBR green qRT-PCR kit (Quanta Biosciences, Gaithersburg, Md.). Cell lysates prepared as described above were diluted by 100 and 2000 folds for detecting Cp18S and Hs18S transcripts, respectively. Reactions were performed in hard-shell 384-well skirted PCR plates (Bio-Rad Laboratories, Hercules, Calif.) (10 μL/well) containing 3 μL diluted cell lysate, 5 μL one-step SYBR green master mix, 0.2 μl RT master mix and the following primers: Cp18S-1011F and Cp18S-1185R primer pair for Cp18S rRNA, and Hs18S-1F and Hs18S-1R primer pair for Hs18S rRNA. Hs18S levels were used as controls and for normalization.
Real-time qRT-PCR reactions were performed by a Bio-Rad CFX384 Touch Real-Time PCR Detection System. The reactions started with synthesizing cDNA at 50° C. for 20 min, followed by 5 min at 95° C. to denature RNA-cDNA hybrids and deactivate reverse transcriptase, and 40 two-temperature thermal cycles of PCR amplification at 95° C., 10 sec and 58° C., 30 sec. At the end of PCR amplification, melting curve analysis was performed between 65° C. to 95° C. At least 2 technical replicates were included in qRT-PCR reactions for each sample.
The % inhibition (% inh @ (μM)) was calculated using a standard curve.

[2] = HCT-8, @10 uM, read-out: % inh @
[3] = CP in HCT-8 cells, 44 h infection, 50% reduction of parasite growth vs control, NA: not active, read-out: MIC50

Row | Structure (SMILES) | concentrations at which not toxic, S. cerevisiae cytotoxicity testing (S. cerevisiae) | concentrations at which not toxic, human fibroblast cytotoxicity testing (human fibroblast; human) | MIC50 [1, 3] | further results
1 | CONC(=O)COc1ccc(Oc2cnc3cc(Cl)ccc3n2)cc1 [NZ-274, 2-{4-[(6-chloroquinoxalin-2-yl)oxy]phenoxy}-N-methoxyacetamide] | ≥ 100 µM | – | – | concentrations at which not toxic, human fibroblast cytotoxicity testing (human fibroblast): ≥ 100 µM; inhibition at 10 µM ([1]; HCT-8, read-out: % inh @ (μM)): 1.5%
2 | CONC(=O)[C@@H](C)Oc1ccc(Oc2cnc3cc(Cl)ccc3n2)cc1 [NZ-295, (2R)-2-{4-[(6-chloroquinoxalin-2-yl)oxy]phenoxy}-N-methoxypropanamide] | ≥ 100 µM | ≥ 100 µM | – | inhibition at 10 µM [1, 2]: 61%
3 | CONC(=O)C(C)c1ccc(Oc2cnc3cc(Cl)ccc3n2)cc1 (stereo not shown) [NZ-310, 2-{4-[(6-chloroquinoxalin-2-yl)oxy]phenyl}-N-methoxypropanamide] | ≥ 100 µM | ≥ 100 µM | – | inhibition at 10 µM [1, 2]: 83%
4 | CC(C)NC(=O)Nc1ccc(Oc2nc3ccc(Cl)cc3s2)cc1 [NZ-331, 1-{4-[(6-chloro-1,3-benzothiazol-2-yl)oxy]phenyl}-3-(propan-2-yl)urea] | ≥ 100 µM | – | – | concentrations at which not toxic, human fibroblast cytotoxicity testing (human fibroblast): ≥ 100 µM; inhibition at 0.05 µM ([1]; HCT-8, read-out: % inh @ (μM)): 36%
5 | CC(C)NC(=O)Nc1ccc(Oc2nc3ccc(F)cc3s2)cc1 [NZ-332, 1-{4-[(6-fluoro-1,3-benzothiazol-2-yl)oxy]phenyl}-3-(propan-2-yl)urea] | ≥ 100 µM | – | – | concentrations at which not toxic, human fibroblast cytotoxicity testing (human fibroblast): ≥ 100 µM; MIC50 [1]: ~2.5 µM (≈ 0.863 µg/mL)
6 | CC(C(=O)N(C)C)c1ccc(Oc2nc3ccc(Cl)cc3s2)cc1 (stereo not shown) [NZ-368, 2-{4-[(6-chloro-1,3-benzothiazol-2-yl)oxy]phenyl}-N,N-dimethylpropanamide] | 25 to 50 µM | ≥ 100 µM | < 0.125 µM | –
7 | CC(C(=O)NC(CO)CO)c1ccc(Oc2nc3ccc(Cl)cc3s2)cc1 (stereo not shown) [NZ-371, 2-{4-[(6-chloro-1,3-benzothiazol-2-yl)oxy]phenyl}-N-(1,3-dihydroxypropan-2-yl)propanamide] | ≥ 100 µM | ≥ 100 µM | 0.15 to 0.23 µM (≈ 0.061 to 0.0936 µg/mL) | –
8 | CNC(=O)C(C)c1ccc(Oc2nc3ccc(F)cc3s2)cc1 (stereo not shown) [NZ-386, 2-{4-[(6-fluoro-1,3-benzothiazol-2-yl)oxy]phenyl}-N-methylpropanamide] | ≥ 100 µM | ≥ 100 µM | 0.05 to 0.3 µM (≈ 0.0165 to 0.0991 µg/mL) | –
9 | CNC(=O)C(C)c1ccc(Oc2nc3cc(F)c(F)cc3s2)cc1 (stereo not shown) [NZ-387, 2-{4-[(5,6-difluoro-1,3-benzothiazol-2-yl)oxy]phenyl}-N-methylpropanamide] | ≥ 100 µM | ≥ 100 µM | ~0.44 µM (≈ 0.153 µg/mL) | –
10 | CNC(=O)Cc1ccc(Oc2nc3ccc(Cl)cc3s2)cc1O [NZ-389, 2-{4-[(6-chloro-1,3-benzothiazol-2-yl)oxy]-2-hydroxyphenyl}-N-methylacetamide] | ≥ 100 µM | ≥ 100 µM | ~1.1 µM (≈ 0.384 µg/mL) | –
11 | CNC(=O)Cc1ccc(Oc2nc3ccc(F)cc3s2)cc1O [NZ-395, 2-{4-[(6-fluoro-1,3-benzothiazol-2-yl)oxy]-2-hydroxyphenyl}-N-methylacetamide] | ≥ 100 µM | ≥ 100 µM | ~5 µM (≈ 1.66 µg/mL) | –
12 | COC(=O)Cc1ccc(Oc2nc3cc(F)c(F)cc3s2)cc1 [NZ-398, methyl 2-{4-[(5,6-difluoro-1,3-benzothiazol-2-yl)oxy]phenyl}acetate] | ≥ 100 µM | – | – | concentrations at which not toxic, human fibroblast cytotoxicity testing (human fibroblast): ≥ 100 µM; MIC50 [1]: ~10 µM; inhibition at 10 µM ([1]; HCT-8, read-out: % inh @ (μM)): 50%
13 | CNC(=O)Cc1ccc(Oc2nc3cc(F)c(F)cc3s2)cc1 [NZ-400, 2-{4-[(5,6-difluoro-1,3-benzothiazol-2-yl)oxy]phenyl}-N-methylacetamide] | ≥ 100 µM | – | – | concentrations at which not toxic, human fibroblast cytotoxicity testing (human fibroblast): ≥ 100 µM; MIC50 [1]: ~10 µM (≈ 3.34 µg/mL); inhibition at 10 µM ([1]; HCT-8, read-out: % inh @ (μM)): 67%
14 | CNC(=O)Cc1ccc(Oc2nc3cc(F)c(F)cc3s2)cc1O [NZ-401, 2-{4-[(5,6-difluoro-1,3-benzothiazol-2-yl)oxy]-2-hydroxyphenyl}-N-methylacetamide] | ≥ 100 µM | – | – | concentrations at which not toxic, human fibroblast cytotoxicity testing (human fibroblast): ≥ 100 µM; inhibition at 4 µM ([1]; HCT-8, read-out: % inh @ (μM)): 3%
15 | O=C(N1CCS(=O)(=O)CC1)C1(c2ccc(Oc3nc4ccc(Cl)cc4s3)cc2)CC1 [NZ-563, 4-(1-{4-[(6-chloro-1,3-benzothiazol-2-yl)oxy]phenyl}cyclopropanecarbonyl)-1λ^6,4-thiomorpholine-1,1-dione] | – | – | 0.018 µM (≈ 0.00833 µg/mL) | –
16 | O=C(NC1COC1)C1(c2ccc(Oc3nc4ccc(Cl)cc4s3)cc2)CC1 [NZ-564, 1-{4-[(6-chloro-1,3-benzothiazol-2-yl)oxy]phenyl}-N-(oxetan-3-yl)cyclopropane-1-carboxamide] | – | – | 0.054 µM (≈ 0.0216 µg/mL) | –
17 | O=C(Nc1ccc(Oc2nc3ccc(Cl)cc3s2)cc1)N1CCOCC1 [NZ-572, N-{4-[(6-chloro-1,3-benzothiazol-2-yl)oxy]phenyl}morpholine-4-carboxamide] | – | – | ~0.5 µM (≈ 0.195 µg/mL) | –
18 | O=C(Nc1ccc(Oc2nc3ccc(Cl)cc3s2)cc1)N1CCS(=O)(=O)CC1 [NZ-573, N-{4-[(6-chloro-1,3-benzothiazol-2-yl)oxy]phenyl}-1,1-dioxo-1λ^6,4-thiomorpholine-4-carboxamide] | – | – | ~0.5 µM (≈ 0.219 µg/mL) | –
19 | O=C(Nc1ccc(Oc2nc3ccc(Cl)cc3s2)cc1)NC1COC1 [NZ-574, 1-{4-[(6-chloro-1,3-benzothiazol-2-yl)oxy]phenyl}-3-(oxetan-3-yl)urea] | – | – | ~1 µM (≈ 0.376 µg/mL) | –
20 | O=C(Cc1ccc(Oc2nc3ccc(Cl)cc3s2)cc1)N1CCOCC1 [NZ-575, 2-{4-[(6-chloro-1,3-benzothiazol-2-yl)oxy]phenyl}-1-(morpholin-4-yl)ethan-1-one] | – | – | ~1 µM (≈ 0.389 µg/mL) | –
21 | O=C(Cc1ccc(Oc2nc3ccc(Cl)cc3s2)cc1)N1CCS(=O)(=O)CC1 [NZ-576, 4-(2-{4-[(6-chloro-1,3-benzothiazol-2-yl)oxy]phenyl}acetyl)-1λ^6,4-thiomorpholine-1,1-dione] | – | – | ~0.03 µM (≈ 0.0131 µg/mL) | –
22 | O=C(Cc1ccc(Oc2nc3ccc(Cl)cc3s2)cc1)NC1COC1 [NZ-577, 2-{4-[(6-chloro-1,3-benzothiazol-2-yl)oxy]phenyl}-N-(oxetan-3-yl)acetamide] | – | – | ~0.25 µM (≈ 0.0937 µg/mL) | –

Reference: US11083717B2, “Compositions and methods for drug sensitization of parasites” (The Texas A&M University System, priority 2015, dated 2021)
